According to patent US20200239530A1, “COMPOUNDS AND METHODS OF MODULATING PROTEIN DEGRADATION” (Vividion Therapeutics, Inc., priority 2017, published 2020):

Legend:
[1] = target: T1, UBE2O (E3-independent) E2 ubiquitin-conjugating enzyme (Homo sapiens, UniProt Q9C0C9); assay: Cysteine liganding, probe competition; assay type: binding
T1 construct: Cells were resuspended in cold PBS on ice and sonicated with a probe sonicator to achieve lysis; endogenous in cells
T1 sequence (Q9C0C9 1-1292): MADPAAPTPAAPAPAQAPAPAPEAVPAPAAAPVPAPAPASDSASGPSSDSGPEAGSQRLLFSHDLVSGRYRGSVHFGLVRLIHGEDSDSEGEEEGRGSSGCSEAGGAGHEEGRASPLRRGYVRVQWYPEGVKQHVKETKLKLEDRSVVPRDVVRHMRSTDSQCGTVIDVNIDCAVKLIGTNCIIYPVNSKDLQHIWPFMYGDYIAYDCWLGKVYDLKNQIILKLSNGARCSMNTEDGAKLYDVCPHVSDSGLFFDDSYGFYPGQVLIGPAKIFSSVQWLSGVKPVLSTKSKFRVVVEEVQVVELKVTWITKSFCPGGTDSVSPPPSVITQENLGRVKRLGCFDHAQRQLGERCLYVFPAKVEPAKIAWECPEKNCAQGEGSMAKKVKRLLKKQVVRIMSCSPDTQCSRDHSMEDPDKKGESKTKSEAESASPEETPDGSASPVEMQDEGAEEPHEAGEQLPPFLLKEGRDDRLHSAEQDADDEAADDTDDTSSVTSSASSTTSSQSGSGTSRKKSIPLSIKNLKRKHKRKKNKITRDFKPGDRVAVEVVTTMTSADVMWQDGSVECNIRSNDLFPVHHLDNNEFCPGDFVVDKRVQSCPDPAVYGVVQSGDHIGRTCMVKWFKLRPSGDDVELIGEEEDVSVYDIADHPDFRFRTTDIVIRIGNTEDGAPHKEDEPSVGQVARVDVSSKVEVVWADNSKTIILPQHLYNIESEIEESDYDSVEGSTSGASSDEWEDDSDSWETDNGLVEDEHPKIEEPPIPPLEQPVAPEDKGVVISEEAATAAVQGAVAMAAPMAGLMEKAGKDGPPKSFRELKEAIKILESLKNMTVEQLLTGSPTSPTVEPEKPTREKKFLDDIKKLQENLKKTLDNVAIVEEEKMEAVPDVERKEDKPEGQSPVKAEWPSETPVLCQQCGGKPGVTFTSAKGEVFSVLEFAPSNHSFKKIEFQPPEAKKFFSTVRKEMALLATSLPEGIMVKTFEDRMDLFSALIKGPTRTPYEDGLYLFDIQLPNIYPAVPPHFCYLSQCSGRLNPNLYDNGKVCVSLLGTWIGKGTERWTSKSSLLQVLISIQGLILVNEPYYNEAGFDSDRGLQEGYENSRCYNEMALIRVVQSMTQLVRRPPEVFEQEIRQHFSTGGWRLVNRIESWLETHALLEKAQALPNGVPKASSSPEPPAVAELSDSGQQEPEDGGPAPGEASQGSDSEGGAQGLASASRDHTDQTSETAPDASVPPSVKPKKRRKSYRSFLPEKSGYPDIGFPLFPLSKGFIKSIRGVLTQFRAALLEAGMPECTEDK
How it was run: (§1)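 Lysates from probe-sonicated cells in PBS (5 mg/ml proteome) were exposed to compound for 1 hr at 25° C, then labelled with desthiobiotin iodoacetamide probe (10 mM stock) for 1 hr at 25° C. Probe-tagged peptides were streptavidin-enriched after trypsin digestion.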

[2] = target: T2, UBR5 E3 ubiquitin-protein ligase UBR5 (Homo sapiens, UniProt O95071); assay: Cysteine liganding, probe competition; assay type: binding
T2 construct: Cells were resuspended in cold PBS on ice and sonicated with a probe sonicator to achieve lysis; endogenous in cells
T2 sequence (O95071 whole entry): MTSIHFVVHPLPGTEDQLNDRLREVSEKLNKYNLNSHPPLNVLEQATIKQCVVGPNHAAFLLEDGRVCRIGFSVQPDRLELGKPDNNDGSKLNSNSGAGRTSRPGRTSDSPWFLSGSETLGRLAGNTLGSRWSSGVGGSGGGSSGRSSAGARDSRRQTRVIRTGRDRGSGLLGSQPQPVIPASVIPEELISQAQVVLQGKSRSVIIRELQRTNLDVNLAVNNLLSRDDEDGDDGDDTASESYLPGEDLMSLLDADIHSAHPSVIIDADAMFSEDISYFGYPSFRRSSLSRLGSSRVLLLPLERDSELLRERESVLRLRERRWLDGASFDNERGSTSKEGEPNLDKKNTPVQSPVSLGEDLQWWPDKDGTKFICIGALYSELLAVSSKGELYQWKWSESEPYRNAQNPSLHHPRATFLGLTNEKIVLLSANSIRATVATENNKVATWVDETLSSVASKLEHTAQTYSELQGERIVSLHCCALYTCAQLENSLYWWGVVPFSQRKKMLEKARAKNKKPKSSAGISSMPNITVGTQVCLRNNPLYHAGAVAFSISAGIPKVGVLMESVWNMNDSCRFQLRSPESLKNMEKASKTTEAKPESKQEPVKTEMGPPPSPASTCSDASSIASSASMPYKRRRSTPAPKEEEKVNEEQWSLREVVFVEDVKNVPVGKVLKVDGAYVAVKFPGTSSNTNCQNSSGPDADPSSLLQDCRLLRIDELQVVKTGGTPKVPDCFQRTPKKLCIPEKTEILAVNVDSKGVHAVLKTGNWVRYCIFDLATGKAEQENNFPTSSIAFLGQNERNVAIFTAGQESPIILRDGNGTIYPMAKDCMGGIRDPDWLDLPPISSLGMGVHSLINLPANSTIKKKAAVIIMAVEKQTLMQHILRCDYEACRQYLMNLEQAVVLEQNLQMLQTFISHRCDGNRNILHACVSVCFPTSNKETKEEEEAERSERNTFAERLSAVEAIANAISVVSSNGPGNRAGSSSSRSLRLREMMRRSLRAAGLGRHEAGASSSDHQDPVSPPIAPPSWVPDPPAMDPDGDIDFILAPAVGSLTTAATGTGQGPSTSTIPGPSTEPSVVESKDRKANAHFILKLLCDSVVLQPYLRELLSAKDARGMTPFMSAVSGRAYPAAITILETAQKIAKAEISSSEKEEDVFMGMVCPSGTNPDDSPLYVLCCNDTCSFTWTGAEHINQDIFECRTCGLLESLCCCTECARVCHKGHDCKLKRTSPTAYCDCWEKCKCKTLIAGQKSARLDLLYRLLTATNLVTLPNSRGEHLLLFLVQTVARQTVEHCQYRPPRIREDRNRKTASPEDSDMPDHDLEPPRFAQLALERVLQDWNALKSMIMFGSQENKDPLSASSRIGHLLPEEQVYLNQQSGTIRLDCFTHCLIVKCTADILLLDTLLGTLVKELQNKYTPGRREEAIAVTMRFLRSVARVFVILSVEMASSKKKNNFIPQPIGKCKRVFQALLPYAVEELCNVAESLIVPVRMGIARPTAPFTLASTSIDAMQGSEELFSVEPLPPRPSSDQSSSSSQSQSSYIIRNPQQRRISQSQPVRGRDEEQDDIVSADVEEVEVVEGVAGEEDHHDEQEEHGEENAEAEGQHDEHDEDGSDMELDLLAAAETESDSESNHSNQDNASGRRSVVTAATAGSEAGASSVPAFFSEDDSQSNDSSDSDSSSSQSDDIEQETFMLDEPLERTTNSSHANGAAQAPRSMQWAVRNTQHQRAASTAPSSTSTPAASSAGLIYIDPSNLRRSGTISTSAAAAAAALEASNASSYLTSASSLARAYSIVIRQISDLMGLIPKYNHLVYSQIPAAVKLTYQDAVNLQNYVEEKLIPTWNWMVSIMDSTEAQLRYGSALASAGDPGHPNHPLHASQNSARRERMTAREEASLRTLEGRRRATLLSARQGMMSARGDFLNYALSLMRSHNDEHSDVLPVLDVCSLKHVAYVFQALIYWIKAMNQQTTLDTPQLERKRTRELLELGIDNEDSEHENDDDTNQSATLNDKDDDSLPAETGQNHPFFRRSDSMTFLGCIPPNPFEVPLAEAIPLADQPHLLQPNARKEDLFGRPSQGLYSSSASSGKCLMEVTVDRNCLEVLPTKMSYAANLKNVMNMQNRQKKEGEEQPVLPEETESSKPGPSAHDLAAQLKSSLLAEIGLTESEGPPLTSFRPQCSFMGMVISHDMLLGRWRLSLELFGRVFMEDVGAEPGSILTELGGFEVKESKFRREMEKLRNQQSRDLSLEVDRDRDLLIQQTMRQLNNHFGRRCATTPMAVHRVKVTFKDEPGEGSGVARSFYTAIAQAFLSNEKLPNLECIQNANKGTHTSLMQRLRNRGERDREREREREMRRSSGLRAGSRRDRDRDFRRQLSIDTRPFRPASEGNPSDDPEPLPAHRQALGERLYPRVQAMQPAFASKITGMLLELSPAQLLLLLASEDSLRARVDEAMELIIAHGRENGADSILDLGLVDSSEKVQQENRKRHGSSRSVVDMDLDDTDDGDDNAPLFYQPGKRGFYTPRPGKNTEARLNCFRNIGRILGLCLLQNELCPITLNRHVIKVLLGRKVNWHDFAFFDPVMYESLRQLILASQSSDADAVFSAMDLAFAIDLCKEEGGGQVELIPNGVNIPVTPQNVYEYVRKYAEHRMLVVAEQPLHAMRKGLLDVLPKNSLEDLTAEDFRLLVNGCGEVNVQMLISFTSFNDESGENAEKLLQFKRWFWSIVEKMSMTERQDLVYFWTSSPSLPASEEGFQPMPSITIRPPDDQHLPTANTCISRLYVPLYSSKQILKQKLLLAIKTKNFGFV
How it was run: as §1

Row | SMILES | Liganded ([1]; UBE2O Res# 370, uniprot Q9C0C9) | 100 ave ([2]; uniprot O95071) | 500 Max ([2]; uniprot O95071) | 500 ave ([2]; uniprot O95071) | 100 Max ([2]; uniprot O95071, unit assumed) [%] | Liganded ([1]; UBE2O Res# 400, uniprot Q9C0C9) | Liganded ([1]; UBE2O Res# 910, uniprot Q9C0C9) | Liganded ([1]; UBE2O Res# 913, uniprot Q9C0C9) | Liganded ([2]; UBR5 Res# 2314, uniprot O95071)
1 | O=C(CCl)Nc1cc(C(F)(F)F)cc(C(F)(F)F)c1 [KBO3] | YES | −2.4 | 33.0 | 26.8 | 9.2 |  |  |  | 
2 | COc1ccc2c(c1)CCCN2C(=O)CCl [KB02] | YES |  |  |  |  | YES | YES | YES | YES
